Like-named read-outs stand apart in the source and are kept apart here.
Legend:
[1] = system: P. falciparum CQ-sensitive D10; assay: In vitro antimalarial assay (pLDH), Pf D10 strain; type: cell-based, Plasmodium falciparum; settings: for Ratio IC50 cpd/IC50 DHA: D10 strain; for IC50: read-out: D10 (CQ-S) Mean ± S.D. IC50; for SI IC50WEHI-164/IC50 cpd: selectivity index versus D10 strain
Method: (§1) Compounds were dissolved in either water or DMSO and then diluted with medium to achieve the required concentrations (final DMSO concentration <1%, which is non-toxic to the parasite). […] Parasite growth was determined spectrophotometrically (OD650) by measuring the activity of the parasite lactate dehydrogenase (pLDH) according to a modification of the method of Makler in control and drug-treated cultures.
(§2) As a blank, uninfected RBCs were used for the antimalarial assays or media without cells for the cytotoxicity assays. The percent viability was plotted as a function of drug concentrations, and the curve fitting was obtained by nonlinear regression analysis using a four parameter logistic method (software Gen5 1.10 provided with the Synergy4 plate reader [Biotek]).

[2] = system: P. falciparum CQ-resistant W-2; assay: In vitro antimalarial assay (pLDH), Pf W-2 strain; type: cell-based, Plasmodium falciparum; settings: for IC50: 72 h, read-out: W-2 (CQ-R) Mean ± S.D. IC50; for Ratio IC50 cpd/IC50 DHA: W-2 strain; for SI IC50WEHI-164/IC50 cpd: selectivity index versus W-2 strain
Method: as §1, §2

[3] = system: mouse fibrosarcoma cell line WEHI-164; assay: Cytotoxicity, MTT assay, WEHI-164; type: cell-based; settings: read-out: WEHI-164 Mean ± S.D. IC50
[4] = system: Plasmodium falciparum (Pf) D6; settings: Pf D6 in vitro; cited from earlier work
[5] = system: Plasmodium falciparum (Pf) W2; settings: Pf W2 in vitro; cited from earlier work
[6] = system: myelogenous leukemia cell line K562; assay: Cytotoxicity, MTT assay, K562; type: cell-based, human; settings: for IC50: Homo sapiens, K562, MTT assay conducted for 72 h, read-out: Mean (±S.D.) IC50 K562
Method: (§3) Selected compounds were carried forward for screening against the immortalized myelogenous leukemia, K562, human microvascular endothelial cells (HMEC-1) and fresh human fibroblasts HDF (Table 2) using the MTT assay, as above.
(§4) A long term microvascular endothelial cell line (HMEC-1) immortalized by SV 40 large T antigen was kindly provided by Dr. Francisco J. Candal, Center for Disease Control, Atlanta, GA, USA. […] Fibroblasts from skin biopsies were maintained in DMEM (EuroClone, Pero, Italy) supplemented with 10% fetal calf serum (HyClone, Logan, UT, USA), 2 mM glutamine, 100 U/mL of penicillin and 100 µg/mL of streptomycin.
(§5) Cells were then treated with serial dilutions of test compounds and cell proliferation evaluated using the MTT assay as previously described. […] All the tests were performed in triplicate at least three times.
as §2

[7] = system: fresh human dermal fibroblasts HDF; assay: Cytotoxicity, MTT assay, HDF; type: cell-based; settings: Fibroblast, MTT assay conducted for 72 h, read-out: Mean (±S.D.) IC50 HDF
Method: as §3, §4, §5, §2

[8] = system: different strains of Plasmodium falciparum (Pf); assay: In vitro antimalarial assay (pLDH), summary over different Pf strains; type: cell-based; settings: for IC50: Plasmodium falciparum, range over D10 and W-2 strains, read-out: IC50 against different strains of Plasmodium falciparum; for selectivity index (SI) with respect to WEHI-164: WEHI-164 IC50 / antimalarial IC50, over the strains
Method: as §1, §2

[9] = system: human microvascular endothelial cells (HMEC-1); assay: Cytotoxicity, MTT assay, HMEC-1; type: cell-based; settings: MTT assay conducted for 72 h, read-out: Mean (±S.D.) IC50 HMEC
Method: as §3, §4, §5, §2

[10] = parameters: method as in earlier work; settings: 28 (artemisone), 29 (DHA); cited from earlier work
[11] = human; cited from earlier work
Pf = settings: fold more active; cited from earlier work
[12] = fold more active; cited from earlier work
[13] = cited from earlier work
[14] = Plasmodium falciparum, D10, 72 h, CQ-sensitive strain, 72 h, pLDH readout
[15] = Plasmodium falciparum, CQ-resistant strain, pLDH readout
[16] = Mus musculus, WEHI-164, 72 h, MTT, 72 h
[17] = CQ-sensitive strain, 72 h, pLDH readout
[18] = CQ-resistant strain, pLDH readout

Compound | Ratio IC50 cpd/IC50 DHA [1] | IC50 [1, 14] | SI IC50WEHI-164/IC50 cpd [1] | Ratio IC50 cpd/IC50 DHA [2] | SI IC50WEHI-164/IC50 cpd [2] | IC50 [3, 16] | IC50 [6] | IC50 [7] | IC50 [1, 17] | IC50 [2, 18] | IC50 ([3]; MTT, 72 h) | further results
CC1CCC2C(C)C(N3CCNCC3)OC3OC4(C)CCC1C32OO4 (stereo not drawn) [Compound 10, 10α-(1-Piperazino)-10-deoxo-10-dihydroartemisinin] | 0.41 | 0.0014 ± 0.0005 µM | 107 | 0.73 | 136 | 0.15 ± 0.01 µM |  |  |  |  |  | IC50 [2, 15]: 0.0011 ± 0.0004 µM
CC1CCC2C(C)C(OC3OC(CO)C(O)C(O)C3O)OC3OC4(C)CCC1C32OO4 (stereo not drawn) [Compound 11] |  |  |  |  |  |  |  |  |  |  |  | IC50 [4]: 0.272 µM; IC50 [5]: 0.0763 µM
C[C@@H]1CC[C@H]2[C@@H](C)C(=O)O[C@@H]3O[C@@]4(C)CC[C@@H]1[C@]32OO4 [artemisinin 1, artemisinin] |  |  |  |  |  |  |  |  |  |  |  | IC50 [4]: 0.0104 µM; IC50 [5]: 0.0024 µM
CC[C@@]1(O)C(=O)OCc2c1cc1n(c2=O)Cc2cc3ccccc3nc2-1 [Camptothecin, camptothecin, reference compound] |  |  |  |  |  |  | 0.03 ± 0.01 µM | 2.62 ± 0.84 µM |  |  |  | SI with respect to the human dermal fibroblasts (HDF) ([6]; HDF versus K562): < 100
CC1CCC2C(C)C(N3CCN(C4OC(C)C(O)C(O)C4O)CC3)OC3OC4(C)CCC1C32OO4 (stereo not drawn) [Compound 23] | 0.22 | < 0.001 µM | 878 | 0.49 | 878 | 0.65 ± 0.06 µM | 1.95 ± 0.48 µM | 314 ± 85.6 µM | 0.00074 ± 0.00034 µM | 0.00074 ± 0.0003 µM |  | IC50 [2, 15]: < 0.001 µM; IC50 [8]: 0.00058 to 0.00087 µM; selectivity index (SI) with respect to WEHI-164 [8]: > 195
CC1CCC2C(C)C(N3CCN(C4OC(CO)C(O)C(O)C4O)CC3)OC3OC4(C)CCC1C32OO4 (stereo not drawn) [Compound 18] | 0.38 |  | 215 | 0.8 | 233 |  | 0.81 ± 0.24 µM | 382 ± 31.2 µM | 0.0013 ± 0.0001 µM | 0.0012 ± 0.0003 µM | 0.28 ± 0.08 µM | IC50 [9]: 4.41 ± 2.29 µM
CC1CCC2C(C)C(N3CCN(C4OC(CO)C(O)C(O)C4O)CC3)OC3OC4(C)CCC1C32OO4 (stereo not drawn) [Compound 20] | 1.7 |  | 596 | 2.9 | 772 |  |  |  | 0.0057 ± 0.0029 µM | 0.0044 ± 0.0023 µM | 3.4 µM | 
C[C@H]1[C@@H](O)O[C@@H]2O[C@@]3(C)CC[C@H]4[C@H](C)CC[C@@H]1[C@@]24OO3 [DHA 2, dihydroartemisinin, reference compound] |  | 0.0034 ± 0.0016 µM |  |  |  | 0.72 ± 0.14 µM | 2.76 ± 0.66 µM | 88.7 ± 13.3 µM |  |  |  | IC50 [9]: 1.16 ± 0.4 µM; elimination half-life [10]: ~ 1 h; plasma clearance [10]: ~ 5.4 L/h/kg; volume of distribution [10]: 7.7 L/kg; half-life of antimalarial activity [11]: ~ 3 h
CC1CCC2C(C)C(N3CCN(C4OC(CO)C(OC5OC(CO)C(O)C(O)C5O)C(O)C4O)CC3)OC3OC4(C)CCC1C32OO4 (stereo not drawn) [Compound 21] | 0.56 | 0.0019 ± 0.0011 µM | 131 | 1.0 | 166 | 0.25 ± 0.09 µM | 0.78 ± 0.15 µM | 534 ± 9.9 µM |  |  |  | IC50 [2, 15]: 0.0015 ± 0.0005 µM; IC50 [9]: 2.5 ± 0.8 µM
CC1CCC2C(C)C(N3CCN(C4CC(O)C(O)C(CO)O4)CC3)OC3OC4(C)CCC1C32OO4 (stereo not drawn) [Compound 22] | 0.68 | 0.0023 ± 0.001 µM | 222 | 0.73 | 463 | 0.51 ± 0.1 µM |  |  |  |  |  | IC50 [2, 15]: 0.0011 ± 0.0004 µM
CC1CCC2C(C)C(OC3OC(CO)C(O)C(O)C3O)OC3OC4(C)CCC1C32OO4 (stereo not drawn) [Compound 12] |  |  |  |  |  |  |  |  |  |  |  | IC50 [4]: 0.0294 µM; IC50 [5]: 0.0797 µM
CC1CCC2C(C)C(N3CCN(C4OC(CO)C(O)C4O)CC3)OC3OC4(C)CCC1C32OO4 (stereo not drawn) [Compound 25] | 0.19 |  | 242 | 0.39 | 275 |  |  |  | 0.00066 ± 0.0002 µM | 0.00058 ± 0.0003 µM | 0.16 ± 0.04 µM | IC50 [8]: 0.00058 to 0.00087 µM; selectivity index (SI) with respect to WEHI-164 [8]: > 195
CC1CCC2C(C)C(N3CCN(C4OC(CO)C(O)C4O)CC3)OC3OC4(C)CCC1C32OO4 (stereo not drawn) [Compound 26] | 0.38 |  | 161 | 0.55 | 256 |  |  |  | 0.0013 ± 0.0008 µM | 0.00082 ± 0.00025 µM | 0.21 ± 0.01 µM | 
CC1CCC2C(C)C(N3CCN(C4OC(CO)C(O)C(O)C4O)CC3)OC3OC4(C)CCC1C32OO4 (stereo not drawn) [Compound 19] | 0.26 |  | 195 | 0.5 | 239 |  |  |  | 0.00087 ± 0.00025 µM | 0.00071 ± 0.0002 µM | 0.17 ± 0.03 µM | IC50 [8]: 0.00058 to 0.00087 µM; selectivity index (SI) with respect to WEHI-164 [8]: > 195
C[C@H]1[C@H](N2CCS(=O)(=O)CC2)O[C@@H]2O[C@@]3(C)CC[C@H]4[C@H](C)CC[C@@H]1[C@@]24OO3 [Artemisone 7, artemisone, reference compound] | 0.32 | 0.0011 ± 0.0004 µM | 269 | 0.6 | 328 | 0.296 ± 0.059 µM | 0.26 ± 0.04 µM | 88.3 ± 33.8 µM |  |  |  | IC50 [2, 15]: 0.0009 ± 0.0004 µM; IC50 [8]: 0.0009 to 0.0011 µM; elimination half-life [10]: ~ 3 h; plasma clearance [10]: ~ 3.5 L/h/kg; volume of distribution [10]: 14.5 L/kg; activity relative to artesunate 4 against Pf in vitro (Pf): nine-fold; activity relative to artesunate 4 in vivo [12]: at least three-fold; neurotoxicity in vitro and in vivo [13]: negligible neurotoxicity
CCN(CC)CCCC(C)Nc1ccnc2cc(Cl)ccc12 (stereo not drawn) [Chloroquine, chloroquine, reference compound] |  |  |  |  |  |  |  |  |  |  |  | IC50 ([1]; Plasmodium falciparum, D10, 72 h): 0.0234 ± 0.0101 µM; IC50 ([2]; Plasmodium falciparum): 0.264 ± 0.143 µM; IC50 ([3]; Mus musculus, WEHI-164, 72 h): > 10 µM
CC1CCC2C(C)C(N3CCN(C4OC(CO)C(O)C4O)CC3)OC3OC4(C)CCC1C32OO4 (stereo not drawn) [Compound 24] | 1.4 |  | 102 | 2.7 | 119 |  | 0.87 ± 0.05 µM | 389 ± 8.6 µM | 0.0048 ± 0.0029 µM | 0.0041 ± 0.0032 µM | 0.49 ± 0.2 µM | IC50 [9]: 2.39 ± 1.51 µM

From paper PMC6100044 (Molecules : A Journal of Synthetic Chemistry and Natural …, 2018)
